Experimental data reported in US20230303712A1, “METHODS OF TREATING GLIOBLASTOMA” (Ramot at Tel-Aviv University Ltd., priority 2020, published 2023).
“Also recorded” adds a separate entry of the source.

What was measured:
primary human microglia [1] = experiment: Real-time PCR gene expression (ARG1, iNOS, IL-10, TGF-β) in microglia treated with rSELP; assay type: cell-based; conditions: added on top of rSELP; SELPi 0.5 µM, antibodies 2.5 µg/ml, 48 h
Protocol: To evaluate microglial expression of IL-10 TGF-β, ARG1 and iNOS by primary human microglia (1 × 10^6 cells), cells were seeded in PLL-coated plates. Twenty-four hours post-seeding cells were treated with: 0% serum DMEM alone, or exposed to rSELP (1.5 µg/ml), or exposed to rSELP and SELPi (0.5 µM), or exposed to rSELP and anti-PSGL-1 neutralizing antibody (2.5 µg/ml), or exposed to rSELP and anti-CD44 neutralizing antibody (2.5 µg/ml), or exposed to rSELP and anti-CD24 neutralizing antibody (2.5 µg/ml) for 48 h.
Real-time PCR. The expression level of target genes was assessed by SYBR green real-time PCR (StepOne plus, Life Technologies) and normalized to GAPDH housekeeping gene. Primers used were: […]

primary human microglia [2] = experiment: Phagocytosis assay with fluorescent latex beads; assay type: cell-based; conditions: added to rSELP; SELPi 0.5 µM, antibodies 2.5 µg/ml
Protocol: Phagocytosis assay. Primary human/murine microglia were seeded in 96 well plates (1 × 10^5 cells/ml) in microglia medium, microglia medium supplemented with rSELP (1.5 µg/ml for human microglia and 3.5 µg/ml for murine microglia), microglia medium supplemented with rSELP and SELPi (0.5 µM), microglia medium supplemented with rSELP and anti-PSGL-1 neutralizing antibody (2.5 µg/ml), microglia medium 13 supplemented with rSELP and anti-CD44 neutralizing antibody (2.5 µg/ml) or microglia medium supplemented with rSELP and anti-CD24 neutralizing antibody (2.5 µg/ml) for 48 h. The medium was then replaced by fresh microglia medium containing green fluorescence latex beads for 2-6 h and washed with PBS supplemented with Hoechst staining solution for 10 min. For evaluation of murine macrophages phagocytosis abilities, macrophages were seeded in 96 well plates (5 × 10^5 cells/ml), treated with macrophages medium, macrophages medium supplemented with rSELP (3.5 µg/ml), macrophages medium supplemented with rSELP and SELPi (0.5 µM), macrophages medium supplemented with rSELP and anti-PSGL-1 neutralizing antibody (2.5 µg/ml), macrophages medium supplemented with rSELP and anti-CD44 neutralizing antibody (2.5 µg/ml) or macrophages medium supplemented with rSELP and anti-CD24 neutralizing antibody (2.5 µg/ml) for 48 h. […]

GL261 GB tumors = experiment: SELPi treatment in murine GL261 GB model; assay type: in vivo, C57BL/6 mice
Protocol: Tumor volume was evaluated by MRI.
(§1) SELPi treatments. KF 38789 (SELPi) is a commercially-available P-Selectin inhibitor manufactured by Tocris BioScience. […] This compound is commonly used for research of immune-related processes such as tumor metastases formation. For the experiment described above, SELPi (0.8 mg/ml) was dissolved in DMSO (0.01%), polyethyleneglycol (93.2 mg/ml), Tween-80 (14.8 mg/ml) and DDW. Mice were injected with 16 mg/kg IV, twice a week, three times a week or QOD as described above. As control (vehicle), mice were injected with DMSO (0.01%), polyethyleneglycol (93.2 mg/ml), Tween-80 (14.8 mg/ml), in DDW at equivalent volume.
MRI imaging. Tumor bearing mice were imaged at the Sackler Cellular & Molecular Imaging Center (SCMIC), Tel Aviv University. Mice were anesthetized by ketamine (150 mg/kg) and xylazine (12 mg/kg) injected IP. T1 with contrast agent (Magnetol, Gd-DTPA, Soreq M.R.C. Israel Radiopharmaceuticals) and T2 weighted images were taken by 4.7T MRI - MRS 4000™ (MR solutions).

iAGR53 tumors = experiment: SELPi treatment in murine mesenchymal iAGR53 GB model; assay type: in vivo, C57BL/6 mice; conditions: iAGR53, 16 mg/kg SELPi IV QOD
Protocol: Tumor volume was evaluated by MRI. […] Twelve days post cell inoculation, 3 mice per group were euthanized and brain were resected and further processed for histology analysis. […] Brain cannulas (NBT) were implanted intraventricularly in the co-lateral hemisphere and the mice were treated stereotactically via the cannulas (1 µl at 0.2 µl/min flow rate) with PBS, 2 mg/kg SELPi dissolved in DMSO or vehicle (DMSO). Three weeks post cell-inoculation, the mice were euthanized, the cannulas were removed, and tumor volume was evaluated by MRI (MR solutions). Brains were resected for immunostaining.
as §1
MRI imaging. Tumor bearing mice were imaged at the Sackler Cellular & Molecular Imaging Center (SCMIC), Tel Aviv University. […]

U251 tumors = experiment: SELPi treatment in human U251 GB model; assay type: in vivo, SCID mice
Protocol: SELPi (0.8 mg/ml) was dissolved in DMSO 0.01%), polyethyleneglycol (93.2 mg/ml), Tween-80 (14.8 mg/ml), and DDW. Mice were treated intravenously (IV) twice a week with PBS, 16 mg/kg SELPi or vehicle (0.01% DMSO, 93.2 mg/ml polyethyleneglycol and 14.8 mg/ml Tween-80 in DDW). Tumor development was followed by monitoring the fluorescence intensity using the CRI Maestro™ imaging system.
Intravital imaging. The CRI Maestro™ non-invasive fluorescence imaging system was used to follow tumor progression in mice bearing mCherry- or iRFP- labeled U251 tumors. Mice were anesthetized by ketamine (150 mg/kg) and xylazine (12 mg/kg) injected IP, and were placed inside the imaging system. Multispectral image-cubes were used through 550-800 nm spectral range in 10 nm steps using excitation (575-605 nm) and emission (645 nm longpass) filter set. Mice autofluorescence and background signals were eliminated by spectral analysis and by applying a linear unmixing algorithm.

L-Selectin = target: T1, L-Selectin (Homo sapiens, UniProt P14151); conditions: cited from earlier work
T1 sequence (P14151 39-372): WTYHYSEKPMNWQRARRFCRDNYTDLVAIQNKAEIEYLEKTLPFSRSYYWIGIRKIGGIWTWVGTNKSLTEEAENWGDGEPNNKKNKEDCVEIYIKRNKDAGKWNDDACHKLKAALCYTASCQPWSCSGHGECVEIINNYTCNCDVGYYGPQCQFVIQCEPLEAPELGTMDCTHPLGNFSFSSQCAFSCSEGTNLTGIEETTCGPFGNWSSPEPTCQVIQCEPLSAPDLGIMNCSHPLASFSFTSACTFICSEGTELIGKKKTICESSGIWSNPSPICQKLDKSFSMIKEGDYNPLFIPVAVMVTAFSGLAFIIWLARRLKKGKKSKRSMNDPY

## COc1ccc(C2CC(c3c(O)cc(C)oc3=O)=NCCS2)c(OC)c1 (stereo not drawn) [SELPi, 3-[7-(2,4-Dimethoxyphenyl)-2,3,6,7-tetrahydro-1,4-thiazepin-5-yl]-4-hydroxy-6-methyl-2H-pyran-2-one]
Primary human microglia [1]
  rescue of rSELP effects on ARG1, iNOS, IL-10, TGF-β expression: rescue the effects of rSELP; also recorded: rescued rSELP effects
Primary human microglia [2]
  restoration of phagocytic function: restored the phagocytic function
GL261 GB tumors; GL261, SELPi IV 16 mg/kg three times a week, 16 mg/kg
  tumor volume (MRI): significant reduction in tumor volume; also recorded: reduced tumor growth
GL261 GB tumors; GL261 tumors
  CD4+ and CD8+ T cells in tumors: increase
  CD4+/FOXP3+ T cells in tumors: decrease
  blood vessel density (CD31 immunostaining): clear reduction
  proliferation (Ki-67 immunostaining): clear reduction
iAGR53 tumors
  survival: prolonged the survival
  tumor volume (MRI): significant reduction in tumor volume; also recorded: reduced tumor growth
U251 tumors; U251 tumors
  blood vessel density (CD31): reduction
  invasion of GB cells (H&E): reduced
  microglia activation (Iba1): reduction
  proliferation of GB cells (Ki-67): reduced
U251 tumors; iRFP-labeled U251, 16 mg/kg SELPi IV twice a week
  tumor growth (fluorescence signal, CRI-Maestro): reduced the fluorescence signal; also recorded: delayed tumor growth
L-Selectin
  inhibiting effect on L-Selectin: no inhibiting effects
